Common to all, as to assay type: in vivo
Data set [1] concerns Echinochloa oryzacola Vasing. Description: Test Example 1: herbicidal activity, application before weed generation in submerged conditions (symbol A). The note with it: application herbicide amount 320 g/ha. In outline: (§1)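 Pre-emergence, paddy conditions: emulsifiable formulation diluted in water, dosed onto floodwater (4 cm depth) on sowing day. Alluvial soil; weeds sown mixed; rice transplanted at 2.5-leaf stage. Greenhouse 25–30 °C, 3 wk. Score 0–5 (5 = ≥90% kill, 0 = ≤5%).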

Data set [2] deals with directly sowed rice plant. Kind of data set: Test Example 3: effect on crop by foliage application, Wagner pot (symbol b). The following applies: application herbicide amount 320 g/ha. An outline of the steps:
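Wagner pot (1/10000 are), alluvial soil, submerged 0.1–0.5 cm; sown E. crus-galli var. crus-galli, L. chinensis, C. difformis, rice; greenhouse 25–30 °C.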

Another data set relates to Digitaria ciliaris. Description: Test Example 4: herbicidal effect by soil treatment (symbol F). The note with it: 320 g/ha. An outline of the steps:
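Seeds were sown in sterilized diluvial soil, covered with about 1.5 cm of soil, and the soil surface was sprayed with a water-diluted emulsion of the compound at a predetermined rate. Plants grew in a greenhouse at 25° C. to 30° C.; effects were scored visually 3 weeks after application.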

Data set [3] has as its system soybean. Description: Test Example 4: effect on crop by soil treatment (symbol d). The note with it: 320 g/ha. In outline: (§2)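 Crop seed is sown in spots together with several weed species in a box of sterilized diluvial soil. It is covered by about 1.5 cm of soil and kept in a greenhouse held between 25° C. and 30° C.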
In data set [4] the test system is wheat. Description: Test Example 4: effect on crop by soil treatment (symbol e). The following applies: 320 g/ha. In outline: as §2
Another data set deals with rapeseed. Kind of data set: Test Example 4: effect on crop by soil treatment (symbol g). The note with it: 320 g/ha. An outline of the steps: as §2
Data set [5] deals with Echinochloa crus-galli var. crus-galli. Kind of data set: Test Example 5: herbicidal effect by foliage application, plastic box (symbol H). The following applies: 320 g/ha, 3 weeks after application. An outline of the steps: (§3)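 Post-emergence spray; diluvial soil (sterilized), ~1.5 cm seed cover; greenhouse 25–30° C; 14-day-old plants; water-diluted emulsion at predetermined dose; visual score at 3 wk post-treatment.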

The subject of the next data set is Lolium multiflorum Lam. Kind of data set: Test Example 5: herbicidal effect by foliage application, plastic box (symbol K). The following applies: 320 g/ha, 3 weeks after application. In outline: as §3
The next data set deals with Amaranthus retroflexus. Kind of data set: Test Example 5: herbicidal effect by foliage application, plastic box (symbol N). The following applies: 320 g/ha, 3 weeks after application. An outline of the steps:
as §3

A further data set deals with Chenopodium album. Description: Test Example 5: herbicidal effect by foliage application, plastic box (symbol O). The note with it: 320 g/ha, 3 weeks after application. An outline of the steps: as §3
For the next data set, the system named is Galium spurium. Kind of data set: Test Example 5: herbicidal effect by foliage application, plastic box (symbol Q). The note with it: 320 g/ha, 3 weeks after application. In outline:
as §3

A further data set concerns Veronica persica. Kind of data set: Test Example 5: herbicidal effect by foliage application, plastic box (symbol R). The note with it: 320 g/ha, 3 weeks after application. In outline: as §3
Data set [6] deals with soybean. Kind of data set: Test Example 5: effect on crop by foliage application, plastic box (symbol d). The following applies: 320 g/ha, 3 weeks after application. In outline: (§4)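 Box culture: sterile diluvial soil, seeds spot-sown, ~1.5 cm cover, raised under glass at 25–30° C.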
Data set [7] relates to wheat. Kind of data set: Test Example 5: effect on crop by foliage application, plastic box (symbol e). The note with it: 320 g/ha, 3 weeks after application. An outline of the steps:
as §4

The subject of another data set is beet. Description: Test Example 5: effect on crop by foliage application, plastic box (symbol f). The following applies: 320 g/ha, 3 weeks after application. In outline: as §4
The subject of another data set is Monochoria vaginalis. Description: Test Example 1: herbicidal activity, application before weed generation in submerged conditions (symbol C). The following applies: application herbicide amount 320 g/ha. An outline of the steps: as §1

With `CC(CC1CC(O)=C(c2c(C)cc(C)cc2C)C1=O)=NOCC#N` (stereo not drawn) [1-102], the “Herbicidal effect grade, A: Echinochloa oryzacola Vasing.” value in data set [1] is recorded as 5 (Herbicidal ratio of 90% or more (almost completely withered)). In [2], the “effect on crop b (directly sowed rice plant), grade 0-5” value (“effect on crop b” for short) was 5 (Herbicidal ratio of 90% or more (almost completely withered)). Also, the “F: Digitaria ciliaris, herbicidal effect grade” value (shortened to “F: Digitaria ciliaris”) in the data set with Digitaria ciliaris was 4 (Herbicidal ratio of 70% or higher and lower than 90%). For the same compound, the “d: soybean, effect grade on crop” value in the data set with soybean [3] is 0 (Herbicidal ratio of 5% or lower (almost no effect)). In addition, in the data set with wheat [4], the “e: wheat, effect grade on crop” value is on record as 0 (Herbicidal ratio of 5% or lower (almost no effect)). Moreover, the “g: rapeseed, effect grade on crop” value in the data set with rapeseed is given as 0 (Herbicidal ratio of 5% or lower (almost no effect)). Besides, in [5], the “H: Echinochloa crus-galli var. crus-galli, herbicidal effect (criteria 0-5)” value is reported as 5 (Herbicidal ratio of 90% or more (almost completely withered)). The “K: Lolium multiflorum Lam., herbicidal effect (criteria 0-5)” value in the data set with Lolium multiflorum Lam. was 5 (Herbicidal ratio of 90% or more (almost completely withered)). Moreover, in the data set with Amaranthus retroflexus, the “N: Amaranthus retroflexus, herbicidal effect (criteria 0-5)” value (shortened to “N: Amaranthus retroflexus”) was 0 (Herbicidal ratio of 5% or lower (almost no effect)). In the data set on Chenopodium album, the “O: Chenopodium album, herbicidal effect (criteria 0-5)” value is 3 (Herbicidal ratio of 40% or higher and lower than 70%). In addition, the “Q: Galium spurium, herbicidal effect (criteria 0-5)” value (“Q: Galium spurium” below) with Galium spurium is 0 (Herbicidal ratio of 5% or lower (almost no effect)). Besides, the “R: Veronica persica, herbicidal effect (criteria 0-5)” value (from here on “R: Veronica persica”) in the data set on Veronica persica is 2 (Herbicidal ratio of 20% or higher and lower than 40%). For the same compound, in the data set on soybean [6], the “d: soybean, effect on crop (criteria 0-5)” value (“d: soybean, effect on crop” for short) is 0 (Herbicidal ratio of 5% or lower (almost no effect)). The “e: wheat, effect on crop (criteria 0-5)” value in the data set on wheat [7] is 4 (Herbicidal ratio of 70% or higher and lower than 90%). In addition, the “f: beet, effect on crop (criteria 0-5)” value with beet is 0 (Herbicidal ratio of 5% or lower (almost no effect)).

Regarding `CC(CC1CC(O)=C(c2c(C)cc(C)cc2C)C1=O)=NOC1CCCC1` (stereo not drawn) [1-106], the “Herbicidal effect grade, A: Echinochloa oryzacola Vasing.” value in data set [1] was 5 (Herbicidal ratio of 90% or more (almost completely withered)). The “effect on crop b” value in data set [2] was 5 (Herbicidal ratio of 90% or more (almost completely withered)). In addition, the “F: Digitaria ciliaris” value in the data set with Digitaria ciliaris is given as 5 (Herbicidal ratio of 90% or more (almost completely withered)). Besides, the “d: soybean, effect grade on crop” value in the data set with soybean [3] is reported as 0 (Herbicidal ratio of 5% or lower (almost no effect)). For the same compound, in the data set with wheat [4], the “e: wheat, effect grade on crop” value is 3 (Herbicidal ratio of 40% or higher and lower than 70%). Moreover, the “g: rapeseed, effect grade on crop” value in the data set with rapeseed is 3 (Herbicidal ratio of 40% or higher and lower than 70%). Further, the “H: Echinochloa crus-galli var. crus-galli, herbicidal effect (criteria 0-5)” value in data set [5] is on record as 5 (Herbicidal ratio of 90% or more (almost completely withered)). Besides, in the data set on Lolium multiflorum Lam., the “K: Lolium multiflorum Lam., herbicidal effect (criteria 0-5)” value was 5 (Herbicidal ratio of 90% or more (almost completely withered)). Further, the “N: Amaranthus retroflexus” value with Amaranthus retroflexus is given as 5 (Herbicidal ratio of 90% or more (almost completely withered)). In addition, in the data set on Chenopodium album, the “O: Chenopodium album, herbicidal effect (criteria 0-5)” value is 2 (Herbicidal ratio of 20% or higher and lower than 40%). The “Q: Galium spurium” value in the data set on Galium spurium was 0 (Herbicidal ratio of 5% or lower (almost no effect)). Besides, the “R: Veronica persica” value with Veronica persica is 1 (Herbicidal ratio of 5% or higher and lower than 20%). In addition, the “d: soybean, effect on crop” value with soybean [6] was 0 (Herbicidal ratio of 5% or lower (almost no effect)). Moreover, the “e: wheat, effect on crop (criteria 0-5)” value with wheat [7] is 4 (Herbicidal ratio of 70% or higher and lower than 90%). Besides, the “f: beet, effect on crop (criteria 0-5)” value with beet is reported as 0 (Herbicidal ratio of 5% or lower (almost no effect)).

`CON=C(C)CC1CC(OC(=O)N(C)CCCCCl)=C(c2c(C)cc(C)cc2C)C1=O` (stereo not drawn) [1-126]: the “Herbicidal effect grade, A: Echinochloa oryzacola Vasing.” value in data set [1] is 4 (Herbicidal ratio of 70% or higher and lower than 90%). The “Herbicidal effect grade, C: Monochoria vaginalis” value in the data set with Monochoria vaginalis is reported as 0 (Herbicidal ratio of 5% or lower (almost no effect)). Further, in data set [2], the “effect on crop b” value was 5 (Herbicidal ratio of 90% or more (almost completely withered)). In addition, the “F: Digitaria ciliaris” value in the data set with Digitaria ciliaris is listed as 0 (Herbicidal ratio of 5% or lower (almost no effect)). For the same compound, the “d: soybean, effect grade on crop” value with soybean [3] is 0 (Herbicidal ratio of 5% or lower (almost no effect)). The “e: wheat, effect grade on crop” value with wheat [4] is 0 (Herbicidal ratio of 5% or lower (almost no effect)). Besides, the “g: rapeseed, effect grade on crop” value in the data set on rapeseed is recorded as 0 (Herbicidal ratio of 5% or lower (almost no effect)). Also, in data set [5], the “H: Echinochloa crus-galli var. crus-galli, herbicidal effect (criteria 0-5)” value is 4 (Herbicidal ratio of 70% or higher and lower than 90%). Further, the “K: Lolium multiflorum Lam., herbicidal effect (criteria 0-5)” value in the data set with Lolium multiflorum Lam. is given as 5 (Herbicidal ratio of 90% or more (almost completely withered)). In addition, in the data set with Amaranthus retroflexus, the “N: Amaranthus retroflexus” value is on record as 0 (Herbicidal ratio of 5% or lower (almost no effect)). The “Q: Galium spurium” value in the data set on Galium spurium is listed as 0 (Herbicidal ratio of 5% or lower (almost no effect)). Besides, the “R: Veronica persica” value in the data set with Veronica persica is given as 0 (Herbicidal ratio of 5% or lower (almost no effect)). Moreover, the “d: soybean, effect on crop” value with soybean [6] is 0 (Herbicidal ratio of 5% or lower (almost no effect)). Further, the “e: wheat, effect on crop (criteria 0-5)” value with wheat [7] is 0 (Herbicidal ratio of 5% or lower (almost no effect)). Besides, in the data set on beet, the “f: beet, effect on crop (criteria 0-5)” value was 0 (Herbicidal ratio of 5% or lower (almost no effect)).

Regarding `C=C(C)CN(CC)C(=O)OC1=C(c2c(C)cc(C)cc2C)C(=O)C(CC(C)=NOC)C1` (stereo not drawn) [1-130], in data set [1], the “Herbicidal effect grade, A: Echinochloa oryzacola Vasing.” value was 3 (Herbicidal ratio of 40% or higher and lower than 70%). Besides, the “Herbicidal effect grade, C: Monochoria vaginalis” value with Monochoria vaginalis was 0 (Herbicidal ratio of 5% or lower (almost no effect)). The “effect on crop b” value in data set [2] is recorded as 5 (Herbicidal ratio of 90% or more (almost completely withered)). For the same compound, the “F: Digitaria ciliaris” value in the data set with Digitaria ciliaris is given as 0 (Herbicidal ratio of 5% or lower (almost no effect)). In the data set on soybean [3], the “d: soybean, effect grade on crop” value was 0 (Herbicidal ratio of 5% or lower (almost no effect)). Further, in the data set with wheat [4], the “e: wheat, effect grade on crop” value is listed as 0 (Herbicidal ratio of 5% or lower (almost no effect)). Further, in the data set on rapeseed, the “g: rapeseed, effect grade on crop” value is reported as 0 (Herbicidal ratio of 5% or lower (almost no effect)). Moreover, the “H: Echinochloa crus-galli var. crus-galli, herbicidal effect (criteria 0-5)” value in [5] was 5 (Herbicidal ratio of 90% or more (almost completely withered)). For the same compound, the “K: Lolium multiflorum Lam., herbicidal effect (criteria 0-5)” value in the data set on Lolium multiflorum Lam. is recorded as 5 (Herbicidal ratio of 90% or more (almost completely withered)). In addition, the “N: Amaranthus retroflexus” value in the data set on Amaranthus retroflexus was 0 (Herbicidal ratio of 5% or lower (almost no effect)). Besides, the “Q: Galium spurium” value in the data set on Galium spurium is given as 0 (Herbicidal ratio of 5% or lower (almost no effect)). For the same compound, the “R: Veronica persica” value with Veronica persica was 0 (Herbicidal ratio of 5% or lower (almost no effect)). The “d: soybean, effect on crop” value in the data set on soybean [6] is 1 (Herbicidal ratio of 5% or higher and lower than 20%). Further, the “e: wheat, effect on crop (criteria 0-5)” value in the data set with wheat [7] was 2 (Herbicidal ratio of 20% or higher and lower than 40%). The “f: beet, effect on crop (criteria 0-5)” value in the data set with beet is recorded as 0 (Herbicidal ratio of 5% or lower (almost no effect)).

The record behind these values is patent publication US11000033B2, “Ketone or oxime compound, and herbicide” (NISSAN CHEMICAL CORPORATION, priority 2014, dated 2021).
